Measurements taken from patent US20220184052A1, “COMPOSITION COMPRISING FEXOFENADINE” (Cellix Bio Private Limited, priority 2020, published 2022).
Counter-ions that a name gives are not always drawn.

Assay: Drug-excipient compatibility study, 40° C./75% RH-4 W (% degradants)
Format: physicochemical

CC(C)(C(=O)O)c1ccc(C(O)CCCN2CCC(C(O)(c3ccccc3)c3ccccc3)CC2)cc1 (stereo not shown) [API, Fexofenadine HCl]
% Total (40° C./75% RH-4 W): 0.11%
Description (40° C./75% RH-4 W): Clear
% Total (Initial): 0.09%
Description (Initial): Clear
